# Measurements reported in ChEMBL document CHEMBL1158345, “Fragment and knowledge-based design of selective GSK-3beta inhibitors using virtual screening models” (Eur J Med Chem, 2009).
# Target: Glycogen synthase kinase-3 beta (Homo sapiens, UniProt P49841)
# Sequence (P49841 whole entry): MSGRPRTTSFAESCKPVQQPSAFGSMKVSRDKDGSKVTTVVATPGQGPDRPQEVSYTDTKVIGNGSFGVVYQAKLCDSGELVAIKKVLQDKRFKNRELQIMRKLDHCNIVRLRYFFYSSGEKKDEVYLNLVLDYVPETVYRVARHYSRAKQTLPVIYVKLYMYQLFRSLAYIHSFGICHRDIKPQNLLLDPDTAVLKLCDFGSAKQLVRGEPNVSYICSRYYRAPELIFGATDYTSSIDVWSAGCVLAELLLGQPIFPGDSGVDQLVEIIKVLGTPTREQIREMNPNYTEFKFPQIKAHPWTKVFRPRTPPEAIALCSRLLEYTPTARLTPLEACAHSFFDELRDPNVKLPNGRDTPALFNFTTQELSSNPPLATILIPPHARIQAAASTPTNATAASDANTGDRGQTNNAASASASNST
# Description: Inhibition of human GSK3-beta
SMILES,IC50 [nM],Ki [nM]
Nc1nc(Nc2ccccc2)sc1C(=O)C1CC1,2400,
Cn1cc(-c2cc(-c3nc4ccccc4[nH]3)c(=O)[nH]n2)ccc1=O,160,
O=[N+]([O-])c1ccc(NCCNc2ncc(-c3ncc[nH]3)c(-c3ccc(Cl)cc3Cl)n2)nc1,,0.09

# Now from value to molecule:
IC50 [nM],Ki [nM],SMILES
2.8,,Cn1cc(C2=C(c3cn(CCCSC(=N)N)c4ccccc34)C(=O)NC2=O)c2ccccc21 [BISINDOLYLMALEIMIDE IX]
7,,Cn1cc(C2=C(c3cc(Cl)ccc3Cl)C(=O)NC2=O)c2ccccc21
0.14,,COc1cc(C2=C(c3cn(CCN4CCN(C)CC4)c4ccccc34)C(=O)NC2=O)c2occc2c1
